According to US10071108B2, “Methods and pharmaceutical compositions for the treatment of hepatitis b virus infection” (INSERM (INSTITUT NATIONAL DE LA SANTÉ ET DE LA RECHERCHE …, priority 2013, dated 2018):
“Also recorded” adds a separate entry of the source.

What was measured:
FXRα = test: FXR mRNA expression in HBV infected HepaRG cells (qPCR); type: cell-based, human; conditions: 10 days treatment
Description: (§1) Differentiated HepaRG cells were infected and treated as described in FIG. 1 legend. Cells were lysed and RNA was extracted, then reverse transcribed into cDNA for qPCR. The expression levels of 3 genes of interest were quantified: FXRα, SHP and APOA1, as well as 3 housekeeping genes for normalization (n=3±SEM). FXR agonists, GW4064 and 6ECDCA, inhibit the expression of FXR mRNA in a dose-dependent manner. SHP and APOA1 are two genes under the regulation of FXR; SHP is induced by FXR while APOA1 is repressed. Here, SHP mRNA expression increases with GW4064 and 6ECDCA treatments, while APOA1 mRNA expression decreases.
(§2) The HepaRG system thus allows the monitoring of the secretion of HBsAg and HBeAg and virion incorporated DNA into the cell culture supernatant after infection with HBV infectious virion stocks prepared from the HepG2.2.15 cell line. This system also allows the monitoring of the synthesis of pregenomic and viral mRNAs as well as cytoplasmic replication intermediates and cccDNA. The effects of molecules on cell physiology and cell differentiated functions were explored, including the quantification of hepatic markers such as albumin and apolipoprotein B. The effects of the compounds on the cellular bile acid pathway were monitored by analysis and quantification of the FXR mRNA as well as the SHP and apoA1 encoding mRNAs the expression of which is under the control of FXR

HBV [1] = test: HBV pregenomic/precore mRNA in infected HepaRG cells (qRT-PCR, Northern blot); type: cell-based, hepatitis B virus
Description: Differentiated HepaRG cells were infected and treated as described in FIG. 1 legend. Cells were lysed and RNA was extracted, then either reverse transcribed into cDNA for quantitative PCR (qRT-PCR) (FIG. 4A) or used in Northern Blot experiment (FIG. 4B). The same experiment was repeated and DNA was extracted. Following plasmid-safe DNase treatment, cccDNA expression was quantified by qPCR experiment using specific HBV cccDNA primers and TaqMan probe (n=3±SEM) (FIG. 4C). cccDNA quantification was normalized to the number of βglobin gene. The expression levels of HBV pregenomic gene were quantified, as well as 3 housekeeping genes for normalization (n=3±SEM). […]
as §2, with “This system also allows the monitoring of the synthesis of pregenomic and viral mRNAs as well as cytoplasmic replication intermediates and cccDNA.” left out

HBV [2] = test: Secretion of HBeAg in supernatant of HBV infected HepaRG cells; type: cell-based, hepatitis B virus; conditions: for effect on HBeAg secretion in supernatant: HBV infected HepaRG, treated days 4, 7 and 11 post infection, supernatant day 14
Description: (§3) Cell supernatants were collected 14 days post infection for quantification of HBsAg, HBeAg (Architec Abbott) or HBV DNA by quantitative PCR using rcDNA primers (n=3±SEM). FIG. 2A—Both FXR agonists, GW4064 and 6ECDCA, inhibit the secretion of HBsAg and HBeAg in the supernatant in a dose-dependent manner whereas UDCA and 052EDL133 have no effect on the antigen secretion. FIG. 2B—Both FXR agonists, GW4064 and 6ECDCA, inhibit the secretion of infectious HBV DNA positive viral particles in the supernatant in a dose-dependent manner. […] FIG. 2C—The FXR agonist PXL007 represses HBsAg, HBeAg and HBV DNA in a dose-dependent manner.
(§4) The HepaRG line derived from a human cellularhepato carcinoma can differentiate and regain many phenotypic traits of hepatocytes after 4 weeks of culture under defined conditions (Hantz O. et al., 2009, J Gen Virol, 90:127-135). After differentiation, these cells are susceptible to infection at high MOI of HBV virions produced by HepG2.2.15 line. Under these conditions viral production can be observed in the second week post infection. This system allows the study of most steps of the viral replication cycle, including penetration into the cell, translocation of the viral genome into the nucleus, the repair and synthesis of the cccDNA, transcription of pregenomic and viral mRNAs as well as later stages of the replication cycle with the synthesis of viral proteins, the assembly and secretion of infectious virions and the secretion of the viral proteins HBs and HBe.
as §2

HBV [3] = test: Expression of HBV core protein (HBc) in infected HepaRG cells, immunofluorescence; type: cell-based, hepatitis B virus; conditions: fixed day 14 post infection, anti-HBc immunofluorescence
Protocol: Differentiated HepaRG cells grown on coverslips were infected and treated as described in FIG. 1 legend (n=3±SEM). Cells were fixed on day 14 post infection and immunocytochemistry using anti-HBc antibody was carried out.

APOA1 = APOA1 mRNA expression in HBV infected HepaRG cells (qPCR); type: cell-based, human; conditions: 10 days treatment
Description: as §1, §2

SHP = SHP mRNA expression in HBV infected HepaRG cells (qPCR); type: cell-based, human; conditions: 10 days treatment
Description: as §1, §2

HBV [4] = test: Secretion of HBsAg in supernatant of HBV infected HepaRG cells; type: cell-based, hepatitis B virus; conditions: for effect on HBsAg secretion in supernatant: treated days 4, 7 and 11 post infection, supernatant day 14
Description: Differentiated HepaRG cells were infected with HBV (100 geq/cell for 24 hr), then treated 3 successive times (days 4, 7 and 11 post infection) with FXR modulators at indicated concentrations in μM. Cell supernatants were collected 14 days post infection for quantification of HBsAg (Architec Abbott).
as §4, §2

HBV [5] = test: Secretion of HBV DNA in supernatant of HBV infected HepaRG cells (quantitative PCR); type: cell-based, hepatitis B virus; conditions: for effect on secretion of HBV DNA (virions) in supernatant: supernatant day 14, quantitative PCR
Description: as §3
Differentiated HepaRG cells were infected and treated as described in FIG. 1 legend. Cell supernatants were collected 14 days post infection. (FIG. 8A) Quantification of HBsAg and HBeAg secretion. (FIG. 8B) Quantification of secreted infectious particles by DNA extraction and quantification by qPCR.
as §4, §2

FXR = biological target: T1, FXR (Homo sapiens, UniProt Q96RI1); test: Reporter gene under control of the HBV Enh2/core promoter region (two FXR response elements) in Huh-7 cell line; type: cell-based; conditions: data not shown
T1 construct: host or cells: Huh-7
T1 sequence (Q96RI1 1-486): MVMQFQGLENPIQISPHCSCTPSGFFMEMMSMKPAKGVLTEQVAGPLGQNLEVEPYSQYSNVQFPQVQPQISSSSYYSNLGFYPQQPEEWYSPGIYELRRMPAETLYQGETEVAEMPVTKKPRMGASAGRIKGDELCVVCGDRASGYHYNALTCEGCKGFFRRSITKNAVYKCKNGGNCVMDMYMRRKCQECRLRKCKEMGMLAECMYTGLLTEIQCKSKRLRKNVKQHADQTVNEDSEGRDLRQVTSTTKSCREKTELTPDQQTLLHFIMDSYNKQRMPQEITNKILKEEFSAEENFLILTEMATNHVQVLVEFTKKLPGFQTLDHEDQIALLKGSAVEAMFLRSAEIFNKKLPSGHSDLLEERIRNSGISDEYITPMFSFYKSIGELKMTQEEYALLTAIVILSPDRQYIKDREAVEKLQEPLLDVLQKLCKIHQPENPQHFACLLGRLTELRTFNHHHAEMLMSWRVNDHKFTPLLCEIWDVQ
Description: A panel of molecules not previously described and original or reference modulators of FXR activity were first tested on the expression of a reporter gene under the control of the HBV Enh2/core promoter region that contains two FXR response elements in the Huh-7 cell line as described in Ramière C, et al., 2008, J Virol; 82: 10832-10840. Molecules were then classified as FXR agonists or antagonists on the basis respectively of the expression increase or decrease of the reporter gene under the transcription control of FXR. […] Thus some molecules decreased the production of HBsAg in a dose-dependent manner. If the active molecules are classified by their antagonist, agonist or agonist “partial” by the screening test in Huh-7 cell with the reporter gene construct, it appears, against previous odds, that the inhibitory effect on the production of HBsAg grew with the tendency of the molecule to be a potent FXR agonist.

[6] = CsA during infection, then FXR agonist

classification as FXR agonist or antagonist by reporter gene expression (FXR)	Structure (SMILES)	effect on HBeAg secretion in supernatant (HBV [2])	effect on HBsAg secretion in supernatant (HBV [4]; HBV infected HepaRG)	effect on secretion of HBV DNA (virions) in supernatant (HBV [5])	further results
	CC(C)c1onc(-c2c(Cl)cccc2Cl)c1COc1ccc(/C=C/c2cccc(C(=O)O)c2)c(Cl)c1 [GW4064]	inhibit; also recorded: dose dependent and strong inhibitory effect	inhibit; also recorded: strong and dose dependent inhibitory effect; also recorded: dose dependent and strong inhibitory effect	inhibit	FXR mRNA expression (FXRα): inhibit; also recorded: strongly repressed; expression of HBV pregenomic/precore mRNA (HBV [1]): inhibit; HBeAg secretion, FXR agonist treatment of cells infected in presence of cyclosporin A (HBV [2]; [6]): further reduced; expression of HBc in infected cells (HBV [3]): drastically reduce; also recorded: strongly inhibited; APOA1 mRNA expression (APOA1): decreased; SHP mRNA expression (SHP): increased; HBsAg secretion, FXR agonist treatment of cells infected in presence of cyclosporin A (HBV [4]; [6]): further reduced; inhibition of HBsAg secretion (HBV [4]; at 10 μM, HBV infected HepaRG): around 70%
	O=C(O)c1cc2c(Cl)c(N3CCN(S(=O)(=O)c4c(Cl)cccc4Cl)CC3)ccc2o1 [PXL007]	represses; also recorded: strongly inhibited	represses; also recorded: strongly inhibited	represses; also recorded: strongly inhibited	
Partial agonists	O=C(O)c1cc2c(Br)c(N3CCC(NS(=O)(=O)c4c(Cl)cccc4Cl)CC3)ccc2o1 [PXL0743, 4-Bromo-5-[4-(2,6-dichloro-benzenesulfonylamino)-piperidin-1-yl]-benzofuran-2-carboxylic acid]		intermediate profile of inhibition		
Partial agonists	O=C(O)c1cc2c(Br)c(N3CCCN(S(=O)(=O)c4ccccc4Cl)CC3)ccc2o1 [PXL0914, 4-Bromo-5-[4-(2-chloro-benzenesulfonyl)-[1,4]diazepan-1-yl]-benzofuran-2-carboxylic acid]		intermediate profile of inhibition		
Partial agonists	Cc1c(N2CCN(C(=O)c3c(Cl)cccc3Cl)CC2)ccc2oc(C(=O)O)cc12 [PXL0924, 5-[4-(2,6-Dichloro-benzoyl)-piperazin-1-yl]-4-methyl-benzofuran-2-carboxylic acid]		intermediate profile of inhibition		
	C[C@H](CCC(=O)O)[C@H]1CC[C@H]2[C@@H]3[C@@H](O)C[C@@H]4C[C@H](O)CC[C@]4(C)[C@H]3CC[C@]12C [UDCA, ursodesoxycholic acid]	no effect	no effect	no or limited effect; also recorded: did not modify	effect on HBeAg secretion in supernatant (HBV [2]; listed as ursodeoxycholate): did not inhibit; expression of HBc in infected cells (HBV [3]): do not appear to modify; also recorded: did not significantly modify; effect on HBsAg secretion in supernatant (HBV [4]; HBV infected HepaRG, listed as ursodeoxycholate): did not inhibit
	Nc1ccn([C@@H]2CS[C@H](CO)O2)c(=O)n1 [lamivudine]				reduction of viral DNA secreted in supernatant (HBV [5]; at 10 μM): 97%
